From paper PMC7041627, “Cucurbitacin D Overcomes Gefitinib Resistance by Blocking EGF Binding to EGFR and Inducing Cell Death in NSCLCs” (Frontiers in Oncology, 2020) come the findings set out here.

Common to all, as to experiment: solid-phase competition binding assay with biotinylated EGF on coated receptor ECD/Fc
Experiment [1] deals with T1, ErbB3 (Homo sapiens, UniProt P21860).
T1 construct: ErbB3 ECD/Fc chimera; with EGF (biotinylated)

Experiment [2] concerns the target T2, EGFR (Homo sapiens, UniProt P00533).
T2 construct: human-EGFR ECD/Fc chimera; with EGF (biotinylated)

For experiment [3], the target named is T3, ErbB2 (Homo sapiens, UniProt P04626).
T3 construct: ErbB2 ECD/Fc chimera; with EGF (biotinylated)
T3 sequence (P04626 23-652): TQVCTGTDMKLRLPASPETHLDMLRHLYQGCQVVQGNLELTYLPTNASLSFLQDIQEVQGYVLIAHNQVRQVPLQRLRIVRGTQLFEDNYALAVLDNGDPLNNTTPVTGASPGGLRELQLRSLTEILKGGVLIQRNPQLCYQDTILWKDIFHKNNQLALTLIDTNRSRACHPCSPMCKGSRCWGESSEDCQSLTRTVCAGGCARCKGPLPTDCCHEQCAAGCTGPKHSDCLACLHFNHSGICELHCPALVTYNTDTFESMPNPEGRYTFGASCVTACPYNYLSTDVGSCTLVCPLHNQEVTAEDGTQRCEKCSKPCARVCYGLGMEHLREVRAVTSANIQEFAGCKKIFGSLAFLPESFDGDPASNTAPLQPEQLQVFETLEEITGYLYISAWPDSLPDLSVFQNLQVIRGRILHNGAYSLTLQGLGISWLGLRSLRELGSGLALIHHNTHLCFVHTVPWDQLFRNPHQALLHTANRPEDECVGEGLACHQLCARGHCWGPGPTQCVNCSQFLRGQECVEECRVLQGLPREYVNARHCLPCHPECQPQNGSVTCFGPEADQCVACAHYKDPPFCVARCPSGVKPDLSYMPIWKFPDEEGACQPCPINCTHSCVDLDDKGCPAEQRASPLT
T3 sequence (P01133 971-1023, further chain): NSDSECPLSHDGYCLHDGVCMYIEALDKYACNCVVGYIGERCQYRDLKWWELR

T2 sequence (P00533 25-645 limits assumed): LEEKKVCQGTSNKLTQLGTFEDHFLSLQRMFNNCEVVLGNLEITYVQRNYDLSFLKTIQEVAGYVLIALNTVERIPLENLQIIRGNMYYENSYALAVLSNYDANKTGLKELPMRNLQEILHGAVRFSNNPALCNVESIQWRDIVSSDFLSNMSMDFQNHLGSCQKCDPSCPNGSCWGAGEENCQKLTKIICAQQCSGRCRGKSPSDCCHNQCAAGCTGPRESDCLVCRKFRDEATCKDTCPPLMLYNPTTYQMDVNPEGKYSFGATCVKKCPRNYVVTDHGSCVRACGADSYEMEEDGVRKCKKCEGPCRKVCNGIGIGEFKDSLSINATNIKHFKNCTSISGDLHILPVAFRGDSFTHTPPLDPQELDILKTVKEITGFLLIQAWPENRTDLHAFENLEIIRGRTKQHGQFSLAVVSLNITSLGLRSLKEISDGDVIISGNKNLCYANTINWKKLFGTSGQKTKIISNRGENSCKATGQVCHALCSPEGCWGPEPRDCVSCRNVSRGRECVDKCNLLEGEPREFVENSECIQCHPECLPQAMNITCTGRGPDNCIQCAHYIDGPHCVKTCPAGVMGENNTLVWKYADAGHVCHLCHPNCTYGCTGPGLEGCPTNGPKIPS
T2 sequence (P01133 971-1023 partner): as the sequence (P01133 971-1023, further chain) above
T1 sequence (P21860 20-643 limits assumed): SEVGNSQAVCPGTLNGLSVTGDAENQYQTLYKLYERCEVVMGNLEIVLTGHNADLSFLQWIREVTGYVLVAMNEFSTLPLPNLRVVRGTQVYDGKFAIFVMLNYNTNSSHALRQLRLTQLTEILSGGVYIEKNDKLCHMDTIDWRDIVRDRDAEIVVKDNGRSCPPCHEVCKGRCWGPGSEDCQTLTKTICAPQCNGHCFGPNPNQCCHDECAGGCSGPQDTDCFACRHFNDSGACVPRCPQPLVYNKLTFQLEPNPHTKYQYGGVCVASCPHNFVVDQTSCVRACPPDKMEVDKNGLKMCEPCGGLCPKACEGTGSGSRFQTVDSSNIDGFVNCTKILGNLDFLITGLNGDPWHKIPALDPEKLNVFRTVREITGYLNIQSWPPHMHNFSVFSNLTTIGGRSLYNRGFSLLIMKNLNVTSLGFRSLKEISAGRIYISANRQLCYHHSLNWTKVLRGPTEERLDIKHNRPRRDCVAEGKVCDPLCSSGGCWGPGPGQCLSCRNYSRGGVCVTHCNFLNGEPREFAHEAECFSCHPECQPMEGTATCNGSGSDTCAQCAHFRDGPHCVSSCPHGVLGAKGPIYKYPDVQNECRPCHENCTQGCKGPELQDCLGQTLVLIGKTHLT
T1 sequence (P01133 971-1023 partner): as the sequence (P01133 971-1023, further chain) above

Usually IC50 stands for the concentration that gives 50% inhibition. Low values mean inhibition by little substance, high ones a need for much substance. Regarding `CC(C)(O)/C=C/C(=O)[C@](C)(O)[C@H]1[C@H](O)C[C@@]2(C)[C@@H]3CC=C4[C@@H](C[C@H](O)C(=O)C4(C)C)[C@]3(C)C(=O)C[C@]12C` [CuD, cucurbitacin D], the figures for the IC50 in experiment [1], in experiment [2] and in experiment [3] were 331 nM, 4.33 nM and 11.1 nM, respectively.
